Experimental data from ChEMBL document CHEMBL1201862, “PubChem BioAssay data set” (2004).
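Following 48 hours of exposure in 96-well plates, responses at five concentrations were used to interpolate endpoints linearly. Abbreviation: GI50, concentration required for 50% inhibition of growth.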 The source made the active and inactive calls. Cut-off read from the data, not from the text of the source: active = GI50 up to about 1.1 µM and inactive = higher.

What was measured:
Assay in all cases: NCI anticancer screen, dose series, 48 h
LOX IMVI = test system: LOX IMVI
NCI/ADR-RES = test system: NCI/ADR-RES
TK-10 = test system: TK-10
NCI-H522 = test system: NCI-H522
HL-60 = test system: HL-60
EKVX = test system: EKVX
NCI-H23 = test system: NCI-H23
SF-268 = test system: SF-268
786-0 = test system: 786-0
NCI-H226 = test system: NCI-H226
NCI-H460 = test system: NCI-H460
SK-MEL-5 = test system: SK-MEL-5
A498 = test system: A498
UACC-257 = test system: UACC-257
HCC 2998 = test system: HCC 2998
OVCAR-8 = test system: OVCAR-8
SNB-19 = test system: SNB-19
SN12C = test system: SN12C
BT-549 = test system: BT-549

| Compound | GI50 (LOX IMVI) | GI50 (NCI/ADR-RES) | GI50 (TK-10) | GI50 (NCI-H522) | GI50 (HL-60) | GI50 (EKVX) | GI50 (NCI-H23) | GI50 (SF-268) | GI50 (786-0) | GI50 (NCI-H226) | GI50 (NCI-H460) | GI50 (SK-MEL-5) | GI50 (A498) | GI50 (UACC-257) | GI50 (HCC 2998) | GI50 (OVCAR-8) | GI50 (SNB-19) | GI50 (SN12C) | GI50 (BT-549) |
| --- | --- | --- | --- | --- | --- | --- | --- | --- | --- | --- | --- | --- | --- | --- | --- | --- | --- | --- | --- |
| CC1=NN(c2cccc(Cl)c2)C2(C1=Cc1ccccc1)C(Cl)C(=O)N2c1nc2ccccc2s1 (stereo not given) | 23.7 µM (inactive) | 20.4 µM (inactive) | 37.8 µM (inactive) | 16.8 µM (inactive) | 22.1 µM (inactive) | 33.9 µM (inactive) | 14.5 µM (inactive) | 23.2 µM (inactive) | 17.5 µM (inactive) | 23.8 µM (inactive) | 15.2 µM (inactive) | 13.3 µM (inactive) | 18.2 µM (inactive) | 24 µM (inactive) | 17.3 µM (inactive) | 32.1 µM (inactive) | – | – | – |
| O/N=C/[C@H]1COC2(CCCCC2)O1 | > 100 µM (inactive) | > 100 µM (inactive) | > 100 µM (inactive) | – | – | > 100 µM (inactive) | > 100 µM (inactive) | > 100 µM (inactive) | > 100 µM (inactive) | > 100 µM (inactive) | – | > 100 µM (inactive) | > 100 µM (inactive) | > 100 µM (inactive) | – | > 100 µM (inactive) | > 100 µM (inactive) | > 100 µM (inactive) | – |
| OC(c1ccsc1)c1cc2ccccc2s1 (stereo not given) | > 10 µM (inactive) | > 10 µM (inactive) | > 10 µM (inactive) | > 10 µM (inactive) | > 10 µM (inactive) | > 10 µM (inactive) | > 10 µM (inactive) | > 10 µM (inactive) | > 10 µM (inactive) | > 10 µM (inactive) | > 10 µM (inactive) | > 10 µM (inactive) | – | > 10 µM (inactive) | > 10 µM (inactive) | > 10 µM (inactive) | > 10 µM (inactive) | > 10 µM (inactive) | – |
| CCOC(=O)CCC(NC(=O)c1ccc(Oc2nc3ccc(C(F)(F)F)cc3nc2-c2ccccc2)cc1)C(=O)OCC (stereo not given) | 28.6 µM (inactive) | 15.5 µM (inactive) | 15.1 µM (inactive) | 9.57 µM (inactive) | > 100 µM (inactive) | 12.9 µM (inactive) | 16.8 µM (inactive) | 6.55 µM (inactive) | 4.25 µM (inactive) | 4.32 µM (inactive) | 47.1 µM (inactive) | 45.3 µM (inactive) | 16.4 µM (inactive) | > 64.7 µM (inactive) | > 100 µM (inactive) | 9.06 µM (inactive) | 12.7 µM (inactive) | > 50.7 µM (inactive) | – |
| CCOC(=O)c1cn(C)nc1N/C(C)=C\C(=O)c1ccccc1 | 90.8 µM (inactive) | > 100 µM (inactive) | > 100 µM (inactive) | > 100 µM (inactive) | > 100 µM (inactive) | > 100 µM (inactive) | > 100 µM (inactive) | > 100 µM (inactive) | > 100 µM (inactive) | 91.4 µM (inactive) | > 100 µM (inactive) | > 100 µM (inactive) | – | > 100 µM (inactive) | > 100 µM (inactive) | > 100 µM (inactive) | > 100 µM (inactive) | > 100 µM (inactive) | > 100 µM (inactive) |
| CCOC(=O)C1(C)CCCc2sc(N)c(C#N)c21 (stereo not given) | – | – | > 100 µM (inactive) | – | > 100 µM (inactive) | > 100 µM (inactive) | > 100 µM (inactive) | – | > 100 µM (inactive) | > 100 µM (inactive) | > 100 µM (inactive) | > 100 µM (inactive) | > 100 µM (inactive) | > 100 µM (inactive) | > 100 µM (inactive) | > 100 µM (inactive) | > 100 µM (inactive) | > 100 µM (inactive) | > 100 µM (inactive) |
| CCNC(=O)Nc1cccc(C)n1 | – | – | > 100 µM (inactive) | > 100 µM (inactive) | 67.8 µM (inactive) | 15.7 µM (inactive) | > 100 µM (inactive) | > 100 µM (inactive) | > 100 µM (inactive) | > 100 µM (inactive) | > 100 µM (inactive) | > 100 µM (inactive) | > 100 µM (inactive) | > 100 µM (inactive) | > 100 µM (inactive) | > 100 µM (inactive) | > 100 µM (inactive) | > 100 µM (inactive) | > 100 µM (inactive) |
| [O-][n+]1c2cccc(O)c2[n+]([O-])c2cccc(O)c21 | 56.8 µM (inactive) | 70.8 µM (inactive) | 23.4 µM (inactive) | 20.4 µM (inactive) | 47.9 µM (inactive) | 23.8 µM (inactive) | 94.6 µM (inactive) | 31.8 µM (inactive) | 30.2 µM (inactive) | – | 30.1 µM (inactive) | 53.5 µM (inactive) | > 100 µM (inactive) | 37.9 µM (inactive) | – | 25.9 µM (inactive) | 92 µM (inactive) | – | 46 µM (inactive) |
| C=CCOC(=O)CC[N+]1=CCC(c2ccccc2)(c2ccccc2)O1 | – | – | > 100 µM (inactive) | > 100 µM (inactive) | – | > 100 µM (inactive) | > 100 µM (inactive) | > 100 µM (inactive) | > 100 µM (inactive) | > 100 µM (inactive) | > 100 µM (inactive) | > 100 µM (inactive) | > 100 µM (inactive) | > 100 µM (inactive) | > 100 µM (inactive) | > 100 µM (inactive) | > 100 µM (inactive) | > 100 µM (inactive) | > 100 µM (inactive) |
| O=C(O)C1CCCCN1CCc1c[nH]c2ccccc12 (stereo not given) | > 100 µM (inactive) | > 100 µM (inactive) | > 100 µM (inactive) | > 100 µM (inactive) | > 100 µM (inactive) | > 100 µM (inactive) | > 100 µM (inactive) | > 100 µM (inactive) | > 100 µM (inactive) | > 100 µM (inactive) | > 100 µM (inactive) | – | – | > 100 µM (inactive) | > 100 µM (inactive) | > 100 µM (inactive) | > 100 µM (inactive) | > 100 µM (inactive) | > 100 µM (inactive) |
| Clc1ccc(OCCSCCCCCCCCCCSCCOc2ccc(Cl)cc2)cc1 | > 100 µM (inactive) | – | > 100 µM (inactive) | > 100 µM (inactive) | > 100 µM (inactive) | > 100 µM (inactive) | > 100 µM (inactive) | > 100 µM (inactive) | > 100 µM (inactive) | > 100 µM (inactive) | > 100 µM (inactive) | > 100 µM (inactive) | > 100 µM (inactive) | > 100 µM (inactive) | > 100 µM (inactive) | > 100 µM (inactive) | > 100 µM (inactive) | > 100 µM (inactive) | – |
| CN(C)c1ccc(-c2[nH]c(=O)c3ccccc3[n+]2C)cc1 | – | 39.1 µM (inactive) | > 100 µM (inactive) | – | 83.8 µM (inactive) | 88.9 µM (inactive) | 60 µM (inactive) | > 100 µM (inactive) | > 100 µM (inactive) | 40.6 µM (inactive) | > 100 µM (inactive) | 36.6 µM (inactive) | 99.1 µM (inactive) | 30.5 µM (inactive) | > 100 µM (inactive) | > 100 µM (inactive) | > 100 µM (inactive) | > 100 µM (inactive) | – |
| CCOC(=O)CCCSCCCC(=O)CCCSCCCC(=O)OCC | > 100 µM (inactive) | > 100 µM (inactive) | > 100 µM (inactive) | > 100 µM (inactive) | > 100 µM (inactive) | > 100 µM (inactive) | > 100 µM (inactive) | > 100 µM (inactive) | > 100 µM (inactive) | – | > 100 µM (inactive) | > 100 µM (inactive) | – | > 100 µM (inactive) | > 100 µM (inactive) | > 100 µM (inactive) | > 100 µM (inactive) | > 100 µM (inactive) | > 100 µM (inactive) |
| CCOC(=O)N1CCC2C(=C(C)C(C)C3=C2C(=O)c2ccccc2C3=O)C1 (stereo not given) | 3.61 µM (inactive) | – | > 10 µM (inactive) | – | 2.07 µM (inactive) | > 10 µM (inactive) | 2.76 µM (inactive) | > 10 µM (inactive) | 4.61 µM (inactive) | – | – | 1.77 µM (inactive) | – | 3.29 µM (inactive) | 5.19 µM (inactive) | 6.18 µM (inactive) | – | 3.86 µM (inactive) | – |
| Cc1[nH]n(-c2nc3c(c(=O)[nH]2)CCC3)c(=O)c1CCO | > 100 µM (inactive) | > 100 µM (inactive) | > 100 µM (inactive) | > 100 µM (inactive) | > 100 µM (inactive) | > 100 µM (inactive) | > 100 µM (inactive) | > 100 µM (inactive) | > 100 µM (inactive) | > 100 µM (inactive) | > 100 µM (inactive) | > 100 µM (inactive) | > 100 µM (inactive) | > 100 µM (inactive) | > 100 µM (inactive) | > 100 µM (inactive) | > 100 µM (inactive) | > 100 µM (inactive) | – |
| O=C(/C=C/c1ccccc1)Oc1ccc(C(=O)/C=C/c2ccc(Cl)cc2)cc1 | – | 46.5 µM (inactive) | > 100 µM (inactive) | – | 71.1 µM (inactive) | > 100 µM (inactive) | – | 82.2 µM (inactive) | 31.9 µM (inactive) | – | 15.8 µM (inactive) | 83.4 µM (inactive) | > 100 µM (inactive) | > 100 µM (inactive) | 41.3 µM (inactive) | 42.3 µM (inactive) | 46.1 µM (inactive) | > 100 µM (inactive) | 25.8 µM (inactive) |
| CC(C)C[C@H](NC(=O)[C@H](Cc1ccccc1)NC(=O)c1cnccn1)B(O)O [BORTEZOMIB] | 0.01 µM (active) | 0.0141 µM (active) | < 0.01 µM (active) | < 0.01 µM (active) | < 0.01 µM (active) | < 0.01 µM (active) | < 0.01 µM (active) | < 0.01 µM (active) | < 0.01 µM (active) | – | < 0.01 µM (active) | – | < 0.01 µM (active) | < 0.01 µM (active) | < 0.01 µM (active) | < 0.01 µM (active) | – | < 0.01 µM (active) | < 0.01 µM (active) |
